In US20040106590A1, “Methods and reagents for treating infections of clostridium difficile and diseases associated therewith” (priority 2002, published 2004):
Converted amounts (≈) assume the structure as drawn.

How the values were obtained:
Type in all cases: cell-based
B. theta 29741 = test: MIC by agar dilution, QC organism B. theta 29741; settings: QC B. theta 29741, 48 h anaerobic
B. frag 25285 = test: MIC by agar dilution, QC organism B. frag 25285; settings: QC B. frag 25285, 48 h anaerobic
C. difficile = test: MIC by agar dilution (NCCLS M11-A5) on C. difficile strains; settings: for MIC: Clostridioides difficile; for susceptibility of strains: Strains 80 and 29-5-30
[1] = ATCC43255, Sample 31, QC C. diff ATCC 43255
[2] = Sample 23, C. difficile 11-5-03
[3] = Sample 24, C. difficile 13-5-03
[4] = Sample 25, C. difficile 14-5-03
[5] = Sample 26, C. difficile 16-5-03
[6] = Sample 27, C. difficile 17-5-03
[7] = Sample 28, C. difficile 19-5-03
[8] = Sample 29, C. difficile 22-5-03
[9] = Sample 30, C. difficile 29-5-03

In the case of CO[C@H]1/C=C/O[C@@]2(C)Oc3c(C)c(O)c4c(=O)c(c5oc6cc(N7CCN(CC(C)C)CC7)cc(O)c6nc-5c4c3C2=O)NC(=O)/C(C)=C\C=C\[C@H](C)[C@H](O)[C@@H](C)[C@@H](O)[C@@H](C)[C@H](OC(C)=O)[C@@H]1C [ABI1648, 3′-hydroxy-5′-(4-isobutyl-1-piperazinyl) benzoxazinorifamycin], the MIC (B. theta 29741) is reported as 0.03 µg/mL (≈ 0.0319 µM), the MIC (B. frag 25285) is reported as 0.03 µg/mL (≈ 0.0319 µM) and the MIC (C. difficile; [1]) is reported as 0.002 µg/mL (≈ 0.00213 µM). It also gave an MIC (C. difficile; Sample 1, C. difficile 18) of 0.001 µg/mL (≈ 0.00106 µM), an MIC (C. difficile; Sample 2, C. difficile 22) of 0.001 µg/mL (≈ 0.00106 µM) and an MIC (C. difficile; Sample 3, C. difficile 28) of 0.002 µg/mL (≈ 0.00213 µM). It also gave an MIC (C. difficile; Sample 4, C. difficile 40) of 0.001 µg/mL (≈ 0.00106 µM), an MIC (C. difficile; Sample 5, C. difficile 44) of 0.001 µg/mL (≈ 0.00106 µM) and an MIC (C. difficile; Sample 6, C. difficile 50) of 0.002 µg/mL (≈ 0.00213 µM). The MIC (C. difficile; Sample 7, C. difficile 60) was 0.002 µg/mL (≈ 0.00213 µM), the MIC (C. difficile; Sample 8, C. difficile 70) was 0.001 µg/mL (≈ 0.00106 µM) and the MIC (C. difficile; Sample 9, C. difficile 80) was > 20.5 µg/mL. The MIC (C. difficile; Sample 10, C. difficile 101) was 0.004 µg/mL (≈ 0.00425 µM), the MIC (C. difficile; Sample 11, C. difficile 107) was 0.001 µg/mL (≈ 0.00106 µM) and the MIC (C. difficile; Sample 12, C. difficile 113) was 0.004 µg/mL (≈ 0.00425 µM). The MIC (C. difficile; Sample 13, C. difficile 116) was 0.002 µg/mL (≈ 0.00213 µM), the MIC (C. difficile; Sample 14, C. difficile 143) was ≤ 0.0005 µg/mL and the MIC (C. difficile; Sample 15, C. difficile 146) was 0.001 µg/mL (≈ 0.00106 µM). For the same compound, the MIC (C. difficile; Sample 16, C. difficile 154) was ≤ 0.0005 µg/mL, the MIC (C. difficile; Sample 17, C. difficile 166) was 0.001 µg/mL (≈ 0.00106 µM) and the MIC (C. difficile; Sample 18, C. difficile 199) was ≤ 0.0005 µg/mL. For the same compound, the MIC (C. difficile; Sample 19, C. difficile 65C) was 0.002 µg/mL (≈ 0.00213 µM), the MIC (C. difficile; Sample 20, C. difficile 5-5-03) was 0.002 µg/mL (≈ 0.00213 µM) and the MIC (C. difficile; Sample 21, C. difficile 6-5-03) was 0.002 µg/mL (≈ 0.00213 µM). For the same compound, the MIC (C. difficile; Sample 22, C. difficile 7-5-03) was 0.002 µg/mL (≈ 0.00213 µM), the MIC (C. difficile; [2]) was 0.001 µg/mL (≈ 0.00106 µM) and the MIC (C. difficile; [3]) was ≤ 0.0005 µg/mL. It also gave an MIC (C. difficile; [4]) of 0.001 µg/mL (≈ 0.00106 µM), an MIC (C. difficile; [5]) of 0.008 µg/mL (≈ 0.0085 µM) and an MIC (C. difficile; [6]) of 0.002 µg/mL (≈ 0.00213 µM). The MIC (C. difficile; [7]) was 0.002 µg/mL (≈ 0.00213 µM), the MIC (C. difficile; [8]) was 0.001 µg/mL (≈ 0.00106 µM) and the MIC (C. difficile; [9]) was > 0.5 µg/mL. For the same compound, the susceptibility of strains (C. difficile) was “less susceptible” and the “effectiveness compared with metronidazole” value (C. difficile; against almost all 31 strains of C. difficile) was “much more effective than metronidazole”.
Compound Cc1ncc([N+](=O)[O-])n1CCO [Metronidazole, metronidazole, reference compound] has an MIC (B. theta 29741) of 2 µg/mL (≈ 11.7 µM), an MIC (B. frag 25285) of 1 µg/mL (≈ 5.84 µM) and an MIC (C. difficile; [1]) of 0.5 µg/mL (≈ 2.92 µM). It also gave an MIC (C. difficile; Sample 1, C. difficile 18) of 0.5 µg/mL (≈ 2.92 µM), an MIC (C. difficile; Sample 2, C. difficile 22) of 0.5 µg/mL (≈ 2.92 µM) and an MIC (C. difficile; Sample 3, C. difficile 28) of 0.5 µg/mL (≈ 2.92 µM). The MIC (C. difficile; Sample 4, C. difficile 40) was 0.5 µg/mL (≈ 2.92 µM), the MIC (C. difficile; Sample 5, C. difficile 44) was 0.5 µg/mL (≈ 2.92 µM) and the MIC (C. difficile; Sample 6, C. difficile 50) was 0.5 µg/mL (≈ 2.92 µM). It also gave an MIC (C. difficile; Sample 7, C. difficile 60) of 0.5 µg/mL (≈ 2.92 µM), an MIC (C. difficile; Sample 8, C. difficile 70) of 0.25 µg/mL (≈ 1.46 µM) and an MIC (C. difficile; Sample 9, C. difficile 80) of 0.5 µg/mL (≈ 2.92 µM). For the same compound, the MIC (C. difficile; Sample 10, C. difficile 101) was 0.5 µg/mL (≈ 2.92 µM), the MIC (C. difficile; Sample 11, C. difficile 107) was 0.5 µg/mL (≈ 2.92 µM) and the MIC (C. difficile; Sample 12, C. difficile 113) was 0.5 µg/mL (≈ 2.92 µM). For the same compound, the MIC (C. difficile; Sample 13, C. difficile 116) was 0.25 µg/mL (≈ 1.46 µM), the MIC (C. difficile; Sample 14, C. difficile 143) was 0.5 µg/mL (≈ 2.92 µM) and the MIC (C. difficile; Sample 15, C. difficile 146) was 0.5 µg/mL (≈ 2.92 µM). For the same compound, the MIC (C. difficile; Sample 16, C. difficile 154) was 0.25 µg/mL (≈ 1.46 µM), the MIC (C. difficile; Sample 17, C. difficile 166) was 0.5 µg/mL (≈ 2.92 µM) and the MIC (C. difficile; Sample 18, C. difficile 199) was 0.25 µg/mL (≈ 1.46 µM). It also gave an MIC (C. difficile; Sample 19, C. difficile 65C) of 0.5 µg/mL (≈ 2.92 µM), an MIC (C. difficile; Sample 20, C. difficile 5-5-03) of 0.5 µg/mL (≈ 2.92 µM) and an MIC (C. difficile; Sample 21, C. difficile 6-5-03) of 0.5 µg/mL (≈ 2.92 µM). The MIC (C. difficile; Sample 22, C. difficile 7-5-03) was 0.25 µg/mL (≈ 1.46 µM), the MIC (C. difficile; [2]) was 0.5 µg/mL (≈ 2.92 µM) and the MIC (C. difficile; [3]) was 0.5 µg/mL (≈ 2.92 µM). For the same compound, the MIC (C. difficile; [4]) was 0.5 µg/mL (≈ 2.92 µM), the MIC (C. difficile; [5]) was 0.5 µg/mL (≈ 2.92 µM) and the MIC (C. difficile; [6]) was 0.25 µg/mL (≈ 1.46 µM). The MIC (C. difficile; [7]) was 0.5 µg/mL (≈ 2.92 µM), the MIC (C. difficile; [8]) was 0.25 µg/mL (≈ 1.46 µM) and the MIC (C. difficile; [9]) was 0.5 µg/mL (≈ 2.92 µM). For the same compound, the susceptibility of strains (C. difficile) was “less susceptible”.
